From PubChem BioAssay AID330 (DTP/NCI, 2004)
Where “and” joins values, the source holds several entries; their conditions need not be identical. Equal values may be shown once. Toxic doses and inconclusive results are not listed. The calls were made as follows: active = survival T/C of 150% or more; inactive = T/C below 125% in these data.

Tested on: P388 leukemia ip, CD2F1 mice, survival T/C
Experiment: NCI In Vivo Anticancer Drug Screen. Data for tumor model P388 Leukemia (intraperitoneal) in CD2F1 (CDF1) mice
Settings: endpoint: median survival time, higher = longer survival
Procedure, shortened: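 Mice carrying the transplanted tumor received test compound or vehicle. Survival was recorded in each group, and the value is the treated-group measurement divided by that of the vehicle-treated control group.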

[1] = dose: 60.0 mg/kg/injection, schedule: Q01DX005 (ip), vehicle: saline
[2] = dose: 60.0 mg/kg/injection, schedule: Q01DX005 (ip), vehicle: Klucel (hydroxypropylcellulose) (HPC)
[3] = dose: 240.0 mg/kg/injection, schedule: Q01DX005 (ip), vehicle: Klucel (hydroxypropylcellulose) (HPC)
[4] = dose: 100.0 mg/kg/injection, schedule: Q04DX003 (ip), vehicle: saline with Tween-80
[5] = dose: 50.0 mg/kg/injection, schedule: Q01DX009 (ip), vehicle: saline with Tween-80
[6] = dose: 100.0 mg/kg/injection, schedule: Q01DX009 (ip), vehicle: saline with Tween-80
[7] = dose: 200.0 mg/kg/injection, schedule: Q01DX009 (ip), vehicle: saline with Tween-80
[8] = dose: 25.0 mg/kg/injection, schedule: Q01DX009 (ip), vehicle: saline with Tween-80
[9] = dose: 12.5 mg/kg/injection, schedule: Q01DX009 (ip), vehicle: saline
[10] = dose: 50.0 mg/kg/injection, schedule: Q01DX009 (ip), vehicle: saline
[11] = dose: 50.0 mg/kg/injection, schedule: Q01DX005 (ip), vehicle: Klucel (hydroxypropylcellulose) (HPC)
[12] = dose: 100.0 mg/kg/injection, schedule: Q01DX005 (ip), vehicle: Klucel (hydroxypropylcellulose) (HPC)
[13] = dose: 100.0 mg/kg/injection, schedule: Q01DX009 (ip), vehicle: saline

Measured: T/C

CCS1=C2C(=O)CCCC2=Nc2ccccc21 (stereo unspecified)
inactive: dose: 15.0 mg/kg/injection, schedule: Q01DX005 (ip), vehicle: saline 100 % of control | dose: 30.0 mg/kg/injection, schedule: Q01DX005 (ip), vehicle: saline 104 % of control | dose: 50.0 mg/kg/injection, schedule: Q01DX005 (ip), vehicle: saline 99 % of control | [1] 92 % of control

Cc1cc2c(=O)cc(-c3ccccc3Cl)oc2c(C#N)c1C
inactive: dose: 1.87 mg/kg/injection, schedule: Q01DX005 (ip), vehicle: Klucel (hydroxypropylcellulose) (HPC) 95 % of control | dose: 3.75 mg/kg/injection, schedule: Q01DX005 (ip), vehicle: Klucel (hydroxypropylcellulose) (HPC) 101 % of control | dose: 7.5 mg/kg/injection, schedule: Q01DX005 (ip), vehicle: Klucel (hydroxypropylcellulose) (HPC) 117 % of control | [2] 86 % of control | [3] 95 % of control

Clc1nc2nc(C3CC3)[nH]c2nc1Cl
inactive: [4] 100 % of control | dose: 200.0 mg/kg/injection, schedule: Q04DX003 (ip), vehicle: saline with Tween-80 100 % of control | dose: 400.0 mg/kg/injection, schedule: Q04DX003 (ip), vehicle: saline with Tween-80 100 % of control

CCOC(=O)C(=CN(C)c1ccccc1)C(=O)OCC
inactive: [5] 108 % of control | [6] 108 % of control | [7] 101 % of control

CC(C)COc1cccc2[oH+]c(C(=O)[O-])cc(=O)c12.CC(C)COc1cccc2[oH+]c(C(=O)[O-])cc(=O)c12.[Cu+2]
inactive: dose: 12.5 mg/kg/injection, schedule: Q04DX002 (ip), vehicle: saline with Tween-80 104 % of control | dose: 25.0 mg/kg/injection, schedule: Q04DX002 (ip), vehicle: saline with Tween-80 95 % of control | dose: 50.0 mg/kg/injection, schedule: Q04DX002 (ip), vehicle: saline with Tween-80 94 % of control

CCCCN=[N+]=[N-]
inactive: dose: 12.5 mg/kg/injection, schedule: Q01DX009 (ip), vehicle: water 91 % of control | dose: 25.0 mg/kg/injection, schedule: Q01DX009 (ip), vehicle: water 98 % of control | dose: 50.0 mg/kg/injection, schedule: Q01DX009 (ip), vehicle: water 98 % of control | dose: 100.0 mg/kg/injection, schedule: Q01DX009 (ip), vehicle: water 100 % of control | dose: 200.0 mg/kg/injection, schedule: Q01DX009 (ip), vehicle: water 96 % of control

COc1ccc(C(C)c2cc3c(cc2OC)OCO3)cc1OC (stereo unspecified)
inactive: dose: 50.0 mg/kg/injection, schedule: Q01DX005 (ip), vehicle: distilled water + Tween-80 99 % of control | dose: 100.0 mg/kg/injection, schedule: Q01DX005 (ip), vehicle: distilled water + Tween-80 98 % of control | dose: 200.0 mg/kg/injection, schedule: Q01DX005 (ip), vehicle: distilled water + Tween-80 100 % of control

CN(C)c1ccc(/C=C/c2ccc3ccccc3n2)cc1
inactive: [8] 95 % of control | [5] 100 % of control | [6] 100 % of control | [4] 100 % of control

CCC1COC(COCc2ccccc2)=N1 (stereo unspecified)
inactive: dose: 100.0 mg/kg/injection, schedule: Q01DX002 (ip), vehicle: saline 98 % of control | dose: 200.0 mg/kg/injection, schedule: Q01DX002 (ip), vehicle: saline 95 % of control | dose: 400.0 mg/kg/injection, schedule: Q01DX002 (ip), vehicle: saline 95 % of control

CCCCCCCCCCSc1ncnc2nc[nH]c12
inactive: dose: 12.5 mg/kg/injection, schedule: Q01DX009 (ip), vehicle: saline with Tween-80 100 % of control | [8] 90 % of control | [5] 90 % of control

Nc1cccc2nccn12
inactive: [9] 105 % of control | dose: 25.0 mg/kg/injection, schedule: Q01DX009 (ip), vehicle: saline 102 % of control | [10] 104 % of control and 95 % of control

CCc1nc(NCCCCCCCCNc2nc(C)c(-c3ccccc3O)c(CC)n2)nc(C)c1-c1ccccc1O
inactive: dose: 100.0 mg/kg/injection, schedule: Q04DX003 (ip), vehicle: saline 93 % of control | dose: 200.0 mg/kg/injection, schedule: Q04DX003 (ip), vehicle: saline 94 % of control | dose: 400.0 mg/kg/injection, schedule: Q04DX003 (ip), vehicle: saline 86 % of control

Cc1c(C)c(C)c(C(=O)c2ccccc2C(=O)NCCSC(C)(C)C)c(C)c1C
inactive: dose: 30.0 mg/kg/injection, schedule: Q01DX005 (ip), vehicle: Klucel (hydroxypropylcellulose) (HPC) 98 % of control | [2] 93 % of control and 96 % of control | dose: 120.0 mg/kg/injection, schedule: Q01DX005 (ip), vehicle: Klucel (hydroxypropylcellulose) (HPC) 92 % of control | [3] 87 % of control

COC1(OC)CCN2OC(CO)CC21 (stereo unspecified)
inactive: dose: 25.0 mg/kg/injection, schedule: Q04DX003 (ip), vehicle: saline with Tween-80 103 % of control | dose: 50.0 mg/kg/injection, schedule: Q04DX003 (ip), vehicle: saline with Tween-80 100 % of control | [4] 100 % of control and 101 % of control

CC(O)(CO)C(C)(O)c1cn(O)c(=N)c(C(=O)OCc2ccccc2)n1 (stereo unspecified)
inactive: dose: 100.0 mg/kg/injection, schedule: Q01DX001 (ip), vehicle: saline 99 % of control | dose: 200.0 mg/kg/injection, schedule: Q01DX001 (ip), vehicle: saline 95 % of control | dose: 400.0 mg/kg/injection, schedule: Q01DX001 (ip), vehicle: saline 88 % of control

CC1(C)OC2C(COC(=O)c3ccccc3)OC(n3cnc4c(=NC(=O)c5ccccc5)n(C(=O)c5ccccc5)cnc43)C2O1 (stereo unspecified)
inactive: [11] 94 % of control | [12] 94 % of control

O=C(O)CN(CCN1CC(=O)OC(=O)C1)CCN1CC(=O)OC(=O)C1
inactive: [1] 102 % of control | dose: 120.0 mg/kg/injection, schedule: Q01DX005 (ip), vehicle: saline 97 % of control

NC(=S)NC(=O)c1cccs1
inactive: [5] 95 % of control | [6] 94 % of control | [7] 93 % of control

CCN(CC)c1ccc2c(cc1=O)[C@@H](NC(C)=O)CCc1cc(OC)c(OC)c(OC)c1-2
inactive: dose: 0.39 mg/kg/injection, schedule: Q01DX009 (ip), vehicle: Klucel (hydroxypropylcellulose) (HPC) 103 % of control and 107 % of control and 120 % of control
active: dose: 3.13 mg/kg/injection, schedule: Q01DX009 (ip), vehicle: Klucel (hydroxypropylcellulose) (HPC) 181 % of control

O=C(/C=C/c1ccccc1)CC1=NC2NN(c3ccccc3)C(=O)C2=C1CC(=O)/C=C/c1ccccc1 (stereo unspecified)
inactive: dose: 60.0 mg/kg/injection, schedule: Q01DX005 (ip), vehicle: suspension in saline 95 % of control | dose: 120.0 mg/kg/injection, schedule: Q01DX005 (ip), vehicle: suspension in saline 99 % of control | dose: 240.0 mg/kg/injection, schedule: Q01DX005 (ip), vehicle: suspension in saline 107 % of control

CCCCCCC[CH2][Sn]([CH2]CCCCCCC)([CH2]CCCCCCC)[O]C(C)=O
inactive: [10] 97 % of control | [13] 100 % of control | dose: 200.0 mg/kg/injection, schedule: Q01DX009 (ip), vehicle: saline 94 % of control

Cc1ccc(C(=O)CC[N+](C)(C)C)cc1
inactive: dose: 3.13 mg/kg/injection, schedule: Q01DX009 (ip), vehicle: saline 109 % of control | dose: 6.25 mg/kg/injection, schedule: Q01DX009 (ip), vehicle: saline 113 % of control | [9] 109 % of control

COC(=O)c1cc(=O)nc(N/N=C/c2cc(OC)ccc2OC)s1
inactive: dose: 50.0 mg/kg/injection, schedule: Q01DX005 (ip), vehicle: saline with Tween-80 95 % of control | dose: 100.0 mg/kg/injection, schedule: Q01DX005 (ip), vehicle: saline with Tween-80 94 % of control | dose: 200.0 mg/kg/injection, schedule: Q01DX005 (ip), vehicle: saline with Tween-80 95 % of control

COC(=O)C12CN(C)CC(C(=O)OC)(C1=O)C(c1ccccn1)N(C)C2c1ccccn1 (stereo unspecified)
inactive: dose: 60.0 mg/kg/injection, schedule: Q01DX005 (ip), vehicle: saline with Tween-80 100 % of control | dose: 120.0 mg/kg/injection, schedule: Q01DX005 (ip), vehicle: saline with Tween-80 98 % of control | dose: 240.0 mg/kg/injection, schedule: Q01DX005 (ip), vehicle: saline with Tween-80 98 % of control

COc1ccc2c(C)cc(N/N=C/c3ccc(OC)c4ccccc34)nc2c1
inactive: [11] 98 % of control | [12] 102 % of control | dose: 200.0 mg/kg/injection, schedule: Q01DX005 (ip), vehicle: Klucel (hydroxypropylcellulose) (HPC) 94 % of control

ClCC1OCCO1
inactive: [10] 116 % of control | [13] 116 % of control
